For experiment [1], the system named is Plasmodium falciparum. The experiment is described as follows: Antiplasmodial activity against chloroquine/antifolate-sensitive Plasmodium falciparum TM4 infected in human RBC incubated for 18 to 20 hrs by microdilution radioisotope method. It is filed as functional, organism-based.
Experiment [2] deals with Vero. The experiment in a line: Cytotoxicity against African green monkey Vero cells by sulforhodamine B assay. It is filed as cell-based. The conditions noted are these: Chlorocebus sabaeus.
Experiment [3] has as its system Plasmodium falciparum. The experiment in a line: Antiplasmodial activity against multidrug-resistant Plasmodium falciparum K1 infected in human RBC incubated for 18 to 20 hrs by microdilution radioisotope method. The experiment is classed as functional, organism-based.
The subject of experiment [4] is KB. The experiment in a line: Cytotoxicity against human KB cells by sulforhodamine B assay. It is filed as functional, cell-based. In general terms: Sulforhodamine B stains cellular protein and so reports cell mass.

Among the data in ChEMBL document CHEMBL4425090, “Antimalarial Oxoprotoberberine Alkaloids from the Leaves of Miliusa cuneata” (J Nat Prod, 2016) are IC50 values, retold here.

As usually defined, the IC50 is the midpoint of a concentration-inhibition curve.

As to `COc1cc(O)c2c(=O)c(OC)c(-c3ccc4c(c3)OCO4)oc2c1`, the IC50 in experiment [1], in experiment [2], in experiment [3] and in experiment [4] was > 47.8 µM each time.
As for `O=C(/C=C/c1ccc(O)c(O)c1)NCCc1ccc(O)cc1`, the IC50 in experiment [1] is > 47.8 µM; in experiment [2] it was > 47.8 µM; in experiment [3] it was 23.8 µM; in experiment [4], > 47.8 µM.
As for `COc1cc(OC)c2c(=O)c(OC)c(-c3ccc(O)c(OC)c3)oc2c1`, the IC50 in experiment [1] is 31.5 µM; in experiment [2], > 47.8 µM; in experiment [3] it was 27.9 µM; in experiment [4] it was > 47.8 µM.
Turning to `CC(C)=CCC/C(C)=C/[C@H]1OC(=O)C[C@]12C[C@H](O)C=CC2=O`, the IC50 in experiment [1] stood at 11.1 µM; in experiment [2], 13.5 µM; in experiment [3], 9.1 µM; in experiment [4] it was 10.2 µM.
On to `COc1cc2c(c(OC)c1OC)CCN1C(=O)c3c(ccc(O)c3O)C[C@@H]21`, for which the IC50 in experiment [1] is > 47.8 µM; in experiment [2] it was > 47.8 µM; in experiment [3], 29.1 µM; in experiment [4], > 47.8 µM.
Turning to `COc1cc2c(c(O)c1OC)CCn1c-2cc2ccc(O)c(O)c2c1=O`, the IC50 in experiment [1] was 19.3 µM; in experiment [2], > 47.8 µM; in experiment [3], 26.3 µM; in experiment [4], > 47.8 µM.
On to `COc1cc2c(c(OC)c1O)CCn1c-2cc2ccc(O)c(O)c2c1=O`, for which the half-inhibitory concentration (IC50) in experiment [1] was 41.4 µM; in experiment [2], > 47.8 µM; in experiment [3] it was 32.4 µM; in experiment [4], > 47.8 µM.
As to `COc1cc2c(c(OC)c1O)CCN1C(=O)c3c(ccc(O)c3O)C[C@@H]21`, the IC50 is 38.1 µM in experiment [1], > 47.8 µM in experiment [2], 26.1 µM in experiment [3] and > 47.8 µM in experiment [4].
Turning to `COc1cc2c(c(OC)c1OC)CCn1c-2cc2ccc(O)c(O)c2c1=O`, the IC50 in experiment [1] is 25.6 µM; in experiment [2], > 47.8 µM; in experiment [3], 10.8 µM; in experiment [4], > 47.8 µM.
Take `COc1cc(-c2oc3cc(OC)c(OC)c(O)c3c(=O)c2OC)ccc1O` [CHRYSOSPLENOL B]: the IC50 in experiment [1] is 39.5 µM; in experiment [2] it was > 47.8 µM; in experiment [3], 12.4 µM; in experiment [4], > 47.8 µM.
As to `CC1(C)N=C(N)N=C(N)N1c1ccc(Cl)cc1` [CYCLOGUANIL], the midpoint of inhibition in experiment [3], the IC50, lay at 3.2 µM.
Compound `COc1cccc2c1C(=O)c1c(O)c3c(c(O)c1C2=O)C[C@@](O)(C(=O)CO)C[C@@H]3O[C@H]1C[C@H](N)[C@H](O)[C@H](C)O1` [DOXORUBICIN] returned an IC50 in experiment [4] of 1 µM.
The compound `Cc1c2ccncc2c(C)c2c1[nH]c1ccccc12` [ELLIPTECINE] gave an IC50 in experiment [2] of 0.4 µM.
Consider `O=C(/C=C/c1ccc(O)cc1)NCCc1ccc(O)cc1` [N-P-COUMAROYL TYRAMINE], for which the IC50 in experiment [1], in experiment [2], in experiment [3] and in experiment [4] was > 47.8 µM in each case.
On to `COc1cc(/C=C/C(=O)NCCc2ccc(O)cc2)ccc1O` [N-TRANS-FERULOYL TYRAMINE], for which the IC50 in experiment [1] is > 47.8 µM; in experiment [2], > 47.8 µM; in experiment [3], 54.9 µM; in experiment [4], > 47.8 µM.
For the compound `COc1cc(O)c2c(=O)c(OC)c(-c3ccc(O)c(OC)c3)oc2c1` [PACHYPODOL], the concentration for half-maximal inhibition (IC50) in experiment [1], in experiment [2], in experiment [3] and in experiment [4] was > 47.8 µM throughout.
Consider `CCc1nc(N)nc(N)c1-c1ccc(Cl)cc1` [PYRIMETHAMINE], for which it took 31 µM to reach half-maximal inhibition in experiment [3] (IC50).
Take `COc1cc([C@H]2OC[C@H]3[C@@H]2CO[C@@H]3c2cc(OC)c(O)c(OC)c2)cc(OC)c1O` [SYRINGARESINOL]: the IC50 in experiment [1], in experiment [2], in experiment [3] and in experiment [4] was > 47.8 µM throughout.
